The format of this series is physicochemical. From the text:
As described herein, a compound of the invention may also be provided in the form of a complex, with a complexing agent.

`CCCN(CC(=O)C(O)C(O)C(O)CO)C1C(O)C(C)OC(OC2C=CC=CC=CC=CCCC=CC=CC(C)C(O)C(C)C(C)OC(=O)CC(O)CC(O)CCC(O)C(O)CC(O)CC3(O)CC(O)C(C(=O)O)C(C2)O3)C1O.CNCC(O)C(O)C(O)C(O)CO` [Compound N59, N-methyl-D-glucamine salt of N-fructosyl-N-n-propylnystatin A1]: the “water solubility of the salt” value is recorded as “water soluble”.
